For test [1], the target named is T1, CDK2/CycE (Homo sapiens, UniProt P24941).
T1 construct: GST; purchased ProQinase GmbH (Freiburg, Germany); host or cells: insect cells (Sf9)
Description: CDK2/CycE kinase assay (TR-FRET, Method 2a). It is filed as biochemical. To be noted: 10 μM ATP. An excerpt: 2a. CDK2/CycE Kinase Assay:
CDK2/CycE-inhibitory activity of compounds of the present invention was quantified employing the CDK2/CycE TR-FRET assay as described in the following paragraphs:
Recombinant fusion proteins of GST and human CDK2 and of GST and human CycE, expressed in insect cells (Sf9) and purified by Glutathion-Sepharose affinity chromatography, were purchased from ProQinase GmbH (Freiburg, Germany). As substrate for the kinase reaction biotinylated peptide biotin-Ttds-YISPLKSPYKISEG (C-terminus in amid form) was used which can be purchased e.g. from the company JERINI Peptide Technologies (Berlin, Germany).
For the assay 50 nl of a 100 fold concentrated solution of the test compound in DMSO was pipetted into a black low volume 384 well microtiter plate (Greiner Bio-One, Frickenhausen, Germany), 2 μl of a solution of CDK2/CycE in aqueous assay buffer [50 mM Tris/HCl pH 8.0, 10 mM MgCl2, 1.0 mM dithiothreitol, 0.1 mM sodium ortho-vanadate, 0.01% (v/v) Nonidet-P40 (Sigma)] were added and the mixture was incubated for 15 min at 22° C. to allow pre-binding of the test compounds to the enzyme before the start of the kinase reaction. […] The concentration of CDK2/CycE was adjusted depending of the activity of the enzyme lot and was chosen appropriate to have the assay in the linear range, typical concentrations were in the range of 130 ng/mL. The reaction was stopped by the addition of 5 μl of a solution of TR-FRET detection reagents (0.2 μM streptavidine-XL665 [Cisbio Bioassays, Codolet, France] and 1 nM anti-RB(pSer807/pSer811)-antibody from BD Pharmingen [#558389] and 1.2 nM LANCE EU-W1024 labeled anti-mouse IgG antibody [Perkin-Elmer, product no. AD0077]) in an aqueous EDTA-solution (100 mM EDTA, 0.2% (w/v) bovine serum albumin in 100 mM HEPES pH 7.5).
(§1) The resulting mixture was incubated 1 h at 22° C. to allow the formation of complex between the phosphorylated biotinylated peptide and the detection reagents. Subsequently the amount of phosphorylated substrate was evaluated by measurement of the resonance energy transfer from the Eu-chelate to the streptavidine-XL. Therefore, the fluorescence emissions at 620 nm and 665 nm after excitation at 350 nm was measured in a TR-FRET reader, e.g. a Rubystar (BMG Labtechnologies, Offenburg, Germany) or a Viewlux (Perkin-Elmer). The ratio of the emissions at 665 nm and at […] was taken as the measure for the amount of phosphorylated substrate. The data were normalised (enzyme reaction without inhibitor=0% inhibition, all other assay components but no enzym=100% inhibition).

The target in test [2] is T1, CDK2/CycE. Nature of the test: CDK2/CycE high ATP kinase assay (TR-FRET, Method 2b). It is filed as biochemical. The note with it: 2 mM ATP. Here is the method: 2b. CDK2/CycE High ATP Kinase Assay:
CDK2/CycE-inhibitory activity of compounds of the present invention at 2 mM adenosine-tri-phosphate (ATP) was quantified employing the CDK2/CycE TR-FRET (TR-FRET=Time Resolved Fluorescence Resonance Energy Transfer) assay as described in the following paragraphs.
Recombinant fusion proteins of GST and human CDK2 and of GST and human CycE, expressed in insect cells (Sf9) and purified by Glutathion-Sepharose affinity chromatography, were purchase from ProQinase GmbH (Freiburg, Germany). As substrate for the kinase reaction biotinylated peptide biotin-Ttds-YISPLKSPYKISEG (C-terminus in amid form) was used which can be purchased e.g. from the company JERINI peptide technologies (Berlin, Germany).
For the assay 50 nl of a 100 fold concentrated solution of the test compound in DMSO was pipetted into a black low volume 384 well microtiter plate (Greiner Bio-One, Frickenhausen, Germany), 2 μl of a solution of CDK2/CycE in aqueous assay buffer [50 mM Tris/HCl pH 8.0, 10 mM MgCl2, 1.0 mM dithiothreitol, 0.1 mM sodium ortho-vanadate, 0.01% (v/v) Nonidet-P40 (Sigma)] were added and the mixture was incubated for 15 min at 22° C. to allow pre-binding of the test compounds to the enzyme before the start of the kinase reaction. Then the kinase reaction was started by the addition of 3 μl of a solution ATP (3.33 mM=>final conc. in the 5 μl assay volume is 2 mM) and substrate (1.25 μM=>final conc. in the 5 μl assay volume is 0.75 μM) in assay buffer and the resulting mixture was incubated for a reaction time of 25 min at 22° C. The concentration of CDK2/CycE was adjusted depending of the activity of the enzyme lot and was chosen appropriate to have the assay in the linear range, typical concentrations were in the range of 15 ng/ml. The reaction was stopped by the addition of 5 μl of a solution of TR-FRET detection reagents (0.2 μM streptavidine-XL665 [Cisbio Bioassays, Codolet, France] and 1 nM anti-RB(pSer807/pSer811)-antibody from BD Pharmingen [#558389] and 1.2 nM LANCE EU-W1024 labeled anti-mouse IgG antibody [Perkin-Elmer, product no. AD0077, as an alternative a Terbium-cryptate-labeled anti-mouse IgG antibody from Cisbio Bioassays can be used]) in an aqueous EDTA-solution (100 mM EDTA, 0.2% (w/v) bovine serum albumin in 100 mM HEPES pH 7.5).
as §1, with “350 nm were measured in” for “350 nm was measured in”
A general note: In TR-FRET formats the signal depends on donor and acceptor labels being close together.

9 compounds from patent US10214542B2, “Modified macrocyclic compounds” (BAYER PHARMA AKTIENGESELLSCHAFT, priority 2015, dated 2019) can be followed below.

Each structure is given as a SMILES string. pIC50: −log10 of the molar value.

The pIC50 is the negative decadic logarithm of the IC50, by convention in mol/L. A high value points to a small IC50.

On to `CS(=N)(=O)Cc1cc2cc(c1)OCCCCNc1cc(F)ccc1-c1nc(ncc1F)N2` (racemic) [Example 16, (rac)-16,20-difluoro-9-[(S-methylsulfonimidoyl)methyl]-2,3,4,5-tetrahydro-1H-17,13-(azeno)-7,11-(metheno)-6,1,12,14-benzoxatriazacyclononadecine], for which the pIC50 is 7.52 in test [1] and 6.64 in test [2].
The matching figures for `CN1CCCCNc2cc(F)ccc2-c2nc(ncc2F)Nc2cc(CS(C)(=N)=O)cc1c2.O=CO` (racemic) [Example 17, (rac)-16,20-difluoro-6-methyl-9-[(S-methylsulfonimidoyl)methyl]-1,2,3,4,5,6-hexahydro-12H-17,13-(azeno)-11,7-(metheno)-1,6,12,14-benzotetraazacyclononadecine; salt with formic acid]: 7.13 and 6.21.
For `C[S+]([O-])Cc1cc2nc(c1)OCCCCCc1cc(F)ccc1-c1cc(ncc1F)N2` (racemic) [Example 19, (rac)-2,19-difluoro-9-[(methylsulfinyl)methyl]-14,15,16,17-tetrahydro-6H,13H-7,11-(azeno)-5,1-(metheno)-12,4,6-benzoxadiazacyclononadecine] the same measures were 6.43 and 5.85.
For `CS(=N)(=O)Cc1cc2nc(c1)OCCCCCc1cc(F)ccc1-c1cc(ncc1F)N2` (racemic) [Example 20, (rac)-2,19-difluoro-9-[(S-methylsulfonimidoyl)methyl]-14,15,16,17-tetrahydro-6H,13H-7,11-(azeno)-5,1-(metheno)-12,4,6-benzoxadiazacyclononadecine] the same measures were 6.79 and 6.04.
Turning to `CN1CCCCOc2cc(F)ccc2-c2nc(ncc2F)Nc2cc(CS(C)(=N)=O)cc1c2` (racemic) [Example 23, (rac)-16,20-difluoro-6-methyl-9-[(S-methylsulfonimidoyl)methyl]-3,4,5,6-tetrahydro-2H,12H-13,17-(azeno)-11,7-(metheno)-1,6,12,14-benzoxatriazacyclononadecine], the pIC50 was 6.98 in test [1] and 5.88 in test [2].
Regarding `CC(C)(C)OC(=O)N=S(C)(=O)Cc1cc2cc(c1)Nc1ncc(F)c(n1)-c1ccc(F)cc1OCCCCN2` (racemic) [Example 24, (rac)-tert-butyl[{[16,20-difluoro-3,4,5,6-tetrahydro-2H,12H-13,17-(azeno)-11,7-(metheno)-1,6,12,14-benzoxatriazacyclononadecin-9-yl]methyl}(methyl)oxido-λ^6-sulfanylidene]carbamate], the negative-log IC50 (pIC50) was 5.59 in test [1] and < 4.70 in test [2].
As for `CSCc1cc2nc(c1)Nc1cc(c(F)cn1)-c1ccc(F)cc1OCCCN2` [Example 1, 15,19-Difluoro-8-[(methylsulfanyl)methyl]-2,3,4,5-tetrahydro-11H-10,6-(azeno)-12,16-(metheno)-1,5,11,13-benzoxatriazacyclooctadecine], the negative-log IC50 (pIC50) in test [1] was 7.09; in test [2], 6.27.
For `CSCc1cc2nc(c1)OCCCCc1cc(F)ccc1-c1cc(ncc1F)N2` [Example 4, 2,18-Difluoro-9-[(methylsulfanyl)methyl]-13,14,15,16-tetrahydro-6H-7,11-(azeno)-5,1-(metheno)-12,4,6-benzoxadiazacyclooctadecine] the same measures were < 4.70 and < 4.70.
Turning to `CSCc1cc2nc(c1)OCCCCCc1cc(F)ccc1-c1cc(ncc1F)N2` [Example 18, 2,19-difluoro-9-[(methylsulfanyl)methyl]-14,15,16,17-tetrahydro-6H,13H-7,11-(azeno)-5,1-(metheno)-12,4,6-benzoxadiazacyclononadecine], the pIC50 in test [1] is 5.59; in test [2], < 4.70.
